One test addresses T1, PKA catalytic domain (Homo sapiens, UniProt P17612).
T1 construct: using the PKA catalytic domain from Upstate Biotechnology (#14-440); purchased Upstate Biotechnology 14-440
In words: Measurement of PKA kinase inhibitory activity (IC50), 33P-ATP filter plate assay. Format: biochemical. As to the method: A final concentration of 1 nM enzyme is used in a buffer that includes 20 mM MOPS pH 7.2, 40 μM ATP/γ^33P-ATP and […] substrate. Compounds are added in dimethylsulphoxide (DMSO) solution to a final DMSO concentration of 2.5%. The reaction is allowed to proceed for 20 minutes before addition of excess orthophosphoric acid to quench activity. Unincorporated γ^33P-ATP is then separated from phosphorylated proteins on a Millipore MAPH filter plate. The plates are washed, scintillant is added and the plates are then subjected to counting on a Packard Topcount.

Another test deals with T2, PKB-PIF fusion protein (Homo sapiens, UniProt P31751).
T2 construct: PIF (fusion partner); made in house
In words: Measurement of PKB kinase inhibitory activity (IC50), 33P-ATP phosphocellulose filter assay. The test is classed as biochemical. As for the experimental part:
The inhibition of protein kinase B (PKB) activity by compounds can be determined essentially as described by Andjelkovic et al. (Mol. Cell. Biol. 19, 5061-5072 (1999)) but using a fusion protein described as PKB-PIF and described in full by Yang et al (Nature Structural Biology 9, 940-944 (2002)). […] A final concentration of 0.6 nM enzyme is used in a buffer that includes 20 mM MOPS pH 7.2, 30 μM ATP/γ^33P-ATP and 25 μM substrate.
Compounds are added in DMSO solution to a final DMSO concentration of 2.5%. The reaction is allowed to proceed for 20 minutes before addition of excess orthophosphoric acid to quench activity. The reaction mixture is transferred to a phosphocellulose filter plate where the peptide binds and the unused ATP is washed away. After washing, scintillant is added and the incorporated activity measured by scintillation counting.
The % inhibition of the PKB activity is calculated and plotted in order to determine the concentration of test compound required to inhibit 50% of the PKB activity (IC50).

Where [1] appears, read: 1 nM enzyme, 40 μM ATP, 20 minutes, read-out: IC50, inhibition of PKA activity.
[2] abbreviates: 0.6 nM enzyme, 30 μM ATP, 25 μM AKTide-2T substrate, 20 minutes, read-out: IC50, inhibition of PKB activity.

Read-outs that look alike come from different tables or passages of the source. A value given as a limit tells only on which side of the number the result lay.

T2 sequence (P31751 with tags, fused parts or gaps limits assumed): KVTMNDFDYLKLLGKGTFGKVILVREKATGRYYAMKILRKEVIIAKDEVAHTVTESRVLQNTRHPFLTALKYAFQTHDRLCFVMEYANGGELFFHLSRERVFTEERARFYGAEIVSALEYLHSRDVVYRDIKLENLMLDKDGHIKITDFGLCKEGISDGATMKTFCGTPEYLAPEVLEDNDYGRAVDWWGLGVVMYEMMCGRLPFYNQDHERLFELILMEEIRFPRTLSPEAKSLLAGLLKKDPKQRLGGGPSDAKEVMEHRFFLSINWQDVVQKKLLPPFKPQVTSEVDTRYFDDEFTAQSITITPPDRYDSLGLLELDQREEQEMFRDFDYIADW

By IC50 is commonly meant the concentration that gives 50% inhibition. On to `O=c1[nH]c2ncnc(N3CCC(NCc4cccc(Cl)c4)CC3)c2[nH]1` [Example 10, 6-[4-(3-Chlorobenzylamino)-piperidin-1-yl]-7,9-dihydro-purin-8-one], for which the 50% inhibitory concentration (IC50) on PKA catalytic domain (setting [1]) and on PKB-PIF fusion protein (setting [2]) was below 10 µM each time.

For `NC1CCN(c2ncnc3[nH]ncc23)CC1` [Example 11, 1-(1H-Pyrazolo[3,4-d]pyrimidin-4-yl)-piperidin-4-ylamine], the 50% inhibitory concentration (IC50) at PKA catalytic domain (setting [1]) and at PKB-PIF fusion protein (setting [2]) was below 10 µM throughout.

As to `NC1CCN(c2ncnc3[nH]ccc23)CC1` [Example 12, 1-(7H-Pyrrolo[2,3-d]pyrimidin-4-yl)-piperidin-4-ylamine], the IC50 on PKA catalytic domain (setting [1]) and on PKB-PIF fusion protein (setting [2]) was below 10 µM each time.

On to `NC1CCN(c2ccnc3[nH]ccc23)CC1` [Example 13, 1-(1H-Pyrrolo[2,3-b]pyridin-4-yl)-piperidin-4-ylamine], for which the IC50 at PKA catalytic domain (setting [1]) and on PKB-PIF fusion protein (setting [2]) was below 10 µM in each case.

With `NCC1(c2ccc(Cl)cc2)CCN(c2ncnc3[nH]ccc23)CC1` [Example 14, C-[4-(4-Chloro-phenyl)-1-(7H-pyrrolo[2,3-d]pyrimidin-4-yl)-piperidin-4-yl]-methylamine], the IC50 at PKA catalytic domain (setting [1]) and at PKB-PIF fusion protein (setting [2]) was below 10 µM in each case.

Consider `NC1(Cc2ccc(Cl)cc2)CCN(c2ncnc3[nH]cnc23)CC1` [Example 18, 4-(4-Chlorobenzyl)-1-(9H-purin-6-yl)piperidin-4-yl amine], for which the concentration for half-maximal inhibition (IC50) on PKA catalytic domain (setting [1]) and at PKB-PIF fusion protein (setting [2]) was below 10 µM throughout.

For `NCC1(Cc2ccc(Cl)cc2)CCN(c2ncnc3[nH]ccc23)CC1` [Example 19, C-[4-(4-Chlorobenzyl)-1-(7H-pyrrolo[2,3-d]pyrimidin-4-yl)piperidin-4-yl]methylamine], the half-inhibitory concentration (IC50) at PKA catalytic domain (setting [1]) and on PKB-PIF fusion protein (setting [2]) was below 10 µM throughout.

`NCC1(c2ccc(Cl)cc2)CCN(c2ncnc3[nH]c(=O)[nH]c23)CC1` [Example 20, 6-[4-Aminomethyl-4-(4-chlorophenyl)piperidin-1-yl]-7,9-dihydropurin-8-one]: the IC50 at PKA catalytic domain (setting [1]) and on PKB-PIF fusion protein (setting [2]) was below 10 µM throughout.

Turning to `NC1(c2ccc(Cl)cc2)CCN(c2ncnc3[nH]ccc23)CC1` [Example 25, 4-(4-Chlorophenyl)-1-(7H-pyrrolo[2,3-d]pyrimidin-4-yl)piperidin-4-ylamine], the concentration for half-maximal inhibition (IC50) at PKA catalytic domain and on PKB-PIF fusion protein was below 10 µM throughout.

In the case of `NCC1(c2cccc(Cl)c2)CCN(c2ncnc3[nH]ccc23)CC1` [Example 26, C-[4-(3-Chlorophenyl)-1-(7H-pyrrolo[2,3-d]pyrimidin-4-yl)piperidin-4-yl]methylamine], the half-maximal inhibitory concentration (IC50) on PKA catalytic domain (setting [1]) and at PKB-PIF fusion protein (setting [2]) was below 10 µM in each case.

For the compound `NCC1(c2ccc(Cl)c(Cl)c2)CCN(c2ncnc3[nH]ccc23)CC1` [Example 28, C-[4-(3,4-Dichlorophenyl)-1-(7H-pyrrolo[2,3-d]pyrimidin-4-yl)piperidin-4-yl]methylamine], the IC50 at PKA catalytic domain (setting [1]) and at PKB-PIF fusion protein (setting [2]) was below 10 µM in each case.

Regarding `NCC1(c2ccc(OC(F)(F)F)cc2)CCN(c2ncnc3[nH]cnc23)CC1` [Example 31, C-[1-(9H-Purin-6-yl)-4-(4-trifluoromethoxyphenyl)piperidin-4-yl]methylamine], the IC50 on PKA catalytic domain (setting [1]) and on PKB-PIF fusion protein (setting [2]) was below 10 µM each time.

Regarding `NCC1(c2ccc(C(F)(F)F)cc2)CCN(c2ncnc3[nH]ccc23)CC1` [Example 32, C-[1-(7H-Pyrrolo[2,3-d]pyrimidin-4-yl)-4-(4-trifluoromethylphenyl)piperidin-4-yl]methylamine], the IC50 on PKA catalytic domain (setting [1]) and on PKB-PIF fusion protein (setting [2]) was below 10 µM in each case.

As to `COc1ccc(C2(CN)CCN(c3ncnc4[nH]ccc34)CC2)cc1` [Example 38, C-[4-(4-Methoxyphenyl)-1-(7H-pyrrolo[2,3-d]pyrimidin-4-yl)piperidin-4-yl]methylamine], the IC50 at PKA catalytic domain (setting [1]) and at PKB-PIF fusion protein (setting [2]) was below 10 µM throughout.

As for `NCC1(c2ccc(OCc3ccccc3)cc2)CCN(c2ncnc3[nH]ccc23)CC1` [Example 40, C-[4-(4-Benzyloxyphenyl)-1-(7H-pyrrolo[2,3-d]pyrimidin-4-yl)piperidin-4-yl]methylamine], the IC50 at PKA catalytic domain (setting [1]) and at PKB-PIF fusion protein (setting [2]) was below 10 µM throughout.

As to `CNCC1(c2ccc(Cl)cc2)CCN(c2ncnc3[nH]ccc23)CC1` [Example 42, [4-(4-Chloro-phenyl)-1-(7H-pyrrolo[2,3-d]pyrimidin-4-yl)-piperidin-4-ylmethyl]-methyl-amine], the concentration for half-maximal inhibition (IC50) against PKA catalytic domain and at PKB-PIF fusion protein was below 10 µM each time.

Turning to `CN(C)C1(Cc2ccc(Cl)cc2)CCN(c2ncnc3[nH]ccc23)CC1` [Example 44, [4-(4-Chlorobenzyl)-1-(7H-pyrrolo[2,3-d]pyrimidin-4-yl)-piperidin-4-yl]-dimethylamine], the IC50 on PKA catalytic domain (setting [1]) and at PKB-PIF fusion protein (setting [2]) was below 10 µM each time.

These data come from US8809336B2, “Ortho-condensed pyridine and pyrimidine derivatives (e.g., purines) as protein kinases inhibitors” (Astex Therapeutics Limited, priority 2004, dated 2014).
